The values that follow are results of earlier work, collected in patent US20050163856A1, “Abuse-resistant sustained-release opioid formulation” (Roxane Laboratories, Inc., priority 1999, published 2005).

Molecules are shown by their SMILES. Structures can show the parent of a compound that is named as a salt.

The conditions of this data set: conventional tablet form.

In the case of `COc1ccc2c3c1O[C@H]1C(=O)CC[C@@]4(O)[C@@H](C2)N(C)CC[C@]314` [Oxycodone, oxycodone (dihydrohydroxycodeinone) hydrochloride], the half-time of absorption entry is “about 0.4 hours”.
